From patent publication US4324728A, “Compound nanaomycin A and derivatives thereof and a process for producing the same” (The Kitasato Institute, priority 1976, dated 1982)
Values after ≈ are worked out from the molar mass of the structure shown. Where two headings read alike, the source gives them in different places.

Assays:
Saccharomyces sake = test: Minimal inhibitory concentration (agar); assay type: cell-based; conditions: potato agar, pH 6.4, 4 days, 27° C.
Trichophyton asteroides = test: Minimal inhibitory concentration (agar); assay type: cell-based; conditions: potato agar, pH 6.4, 4 days, 27° C.
Aspergillus niger = test: Minimal inhibitory concentration (agar); assay type: cell-based; conditions: potato agar, pH 6.4, 4 days, 27° C.
Experimental: (§1) Minimal inhibitory concentration was assayed by agar dilution method
(§2) (potato agar, pH 6.4, 27° C., 4 days).
(§3) P potato agar (pH 6.4, 4 days, 27° C.)

Trichophyton ferrugineum = test: Minimal inhibitory concentration (agar); assay type: cell-based; conditions: potato agar, pH 6.4, 4 days, 27° C.
Trichophyton rubrum = test: Minimal inhibitory concentration (agar); assay type: cell-based; conditions: pH 6.4, 4 days, 27° C.
Experimental: as §3
(§4) MIC Minimal inhibitory concentration
as §1, §2

Trichophyton schoenleini = test: Minimal inhibitory concentration (agar); assay type: cell-based; conditions: pH 6.4, 4 days, 27° C.
Experimental: as §3, §4, §1, §2

Candida albicans = test: Minimal inhibitory concentration (agar); assay type: cell-based; conditions: pH 6.4, 4 days, 27° C.
Experimental: as §3, §4, §1, §2

[1] = test system: Trichophyton interdigitale; test: Minimal inhibitory concentration (agar); assay type: cell-based; conditions: potato agar, pH 6.4, 4 days, 27° C.
Microsporum gypseum = test: Minimal inhibitory concentration (agar dilution method); assay type: cell-based; conditions: potato agar, pH 6.4, 27° C., 4 days
Experimental: as §1, §2

Aspergillus fumigatus = test: as above; assay type: cell-based; conditions: potato agar, pH 6.4, 27° C., 4 days
Experimental: as §1, §2

Trichophyton violaceum = test: Minimal inhibitory concentration (agar); assay type: cell-based; conditions: potato agar, pH 6.4, 4 days, 27° C.
Microsporum gypseum 704 = test: Minimal inhibitory concentration (agar); assay type: cell-based; conditions: Nannizzia gypsea, 704, 96 h; potato agar, pH 6.4, 4 days, 27° C.
Trichophyton pedis 804 = test: Minimal inhibitory concentration (agar); assay type: cell-based; conditions: Trichophyton pedis, 804, 96 h, pH 6.4
[2] = test system: Staphylococcus aureus FDA 209P; test: Minimal inhibitory concentration (agar); assay type: cell-based; conditions: FDA209P, 48 h, nutrient agar, pH 7.0, 2 days, 37° C.
Trichophyton purpureum = test: Minimal inhibitory concentration (agar); assay type: cell-based; conditions: 96 h, pH 6.4
[3] = test system: Aspergillus niger ATCC 6275; test: Minimal inhibitory concentration (agar); assay type: cell-based; conditions: ATCC6275, 96 h, potato agar, pH 6.4, 4 days, 27° C., read-out: MIC
[4] = test system: Mycoplasma gallisepticum KP-13; test: Antimycoplasma activity, inhibition zone; assay type: cell-based; conditions: Eiken PPLO agar, pH 7.8, 8 days, 37° C.
Experimental: E Eiken PPLO agar (pH 7.8, 8 days, 37° C.)
(§5) Nanaomycin A and derivatives thereof according to the present invention are assayed in a similar manner to that designated as the paper disc method by Itoh, et al [J. of Antibiotics, 24, 855-859 (1971)], for example, as follows: […]

[5] = test system: Aspergillus fumigatus IAM 2162; test: Minimal inhibitory concentration (agar); assay type: cell-based; conditions: IAM2162, 96 h, potato agar, pH 6.4, 4 days, 27° C.
Experimental: | P potato agar (pH 6.4, 4 days, 27° C.)

Salmonella typhimurium = test: Minimal inhibitory concentration (agar); assay type: cell-based; conditions: Salmonella enterica, 48 h, nutrient agar, pH 7.0, 2 days, 37° C.
[6] = test system: mycoplasma, Gram-positive bacteria and tricophyton; test: Antimicrobial activity (in words); assay type: cell-based
Piricularia oryzae = test: microbe, parasite or virus in culture; assay type: cell-based; conditions: 96 h, pH 6.4, potato agar, pH 6.4, 4 days, 27° C.
Trichophyton roseum = test: Minimal inhibitory concentration (agar); assay type: cell-based; conditions: Trichophyton, 96 h, pH 6.4, potato agar, pH 6.4, 4 days, 27° C.; read-out: MIC
[7] = test system: Aerobacter aerogenes IAM 1183; test: Minimal inhibitory concentration (agar); assay type: cell-based; conditions: Klebsiella aerogenes, IAM1183, 48 h; nutrient agar, pH 7.0, 2 days, 37° C.
Experimental: (§6) N nutrient agar (pH 7.0, 2 days, 37° C.)

[8] = test system: Proteus vulgaris IFO 3167; test: Minimal inhibitory concentration (agar); assay type: cell-based; conditions: IFO3167, 48 h, nutrient agar, pH 7.0, 2 days, 37° C.
Experimental: as §6

[9] = test system: Corynebacterium paurometabolum; test: Minimal inhibitory concentration (agar); assay type: cell-based; conditions: Tsukamurella paurometabola, 48 h; nutrient agar, pH 7.0, 2 days, 37° C.
Experimental: as §6

[10] = test system: Staphylococcus aureus FS 1227 (PC-R); test: Minimal inhibitory concentration (agar); assay type: cell-based; conditions: 48 h, nutrient agar, pH 7.0, 2 days, 37° C., penicillin resistant strain
Experimental: as §6

[11] = test system: Staphylococcus aureus KB 64 (R-TC, EM); test: Minimal inhibitory concentration (agar); assay type: cell-based; conditions: 48 h, pH 7
Experimental: as §6

[12] = test system: Staphylococcus aureus KB 61 (R-TC, EM); test: Minimal inhibitory concentration (agar); assay type: cell-based; conditions: 48 h, pH 7
Experimental: as §6

Bacillus cereus T = test: Minimal inhibitory concentration (agar); assay type: cell-based; conditions: 48 h, nutrient agar, pH 7.0, 2 days, 37° C.
Experimental: as §6

[13] = test system: Pseudomonas aeruginosa P-3; test: Minimal inhibitory concentration (agar); assay type: cell-based; conditions: P3, 48 h, nutrient agar, pH 7.0, 2 days, 37° C.
Experimental: as §6

Proteus mirabilis = test: Minimal inhibitory concentration (agar); assay type: cell-based; conditions: 48 h, nutrient agar, pH 7.0, 2 days, 37° C.
Experimental: as §6

Shigella sonnei E 33 = test: Minimal inhibitory concentration (agar); assay type: cell-based; conditions: E33, 48 h, nutrient agar, pH 7.0, 2 days, 37° C.
Experimental: as §6

[14] = test system: parasite of the genus Tricophyton; test: Therapeutic effect on infectious diseases in guinea pigs and cattle; assay type: in vivo
Experimental: When dermatomycosis of cattle caused by mass infection of Trichophyton verrucosum is treated with nanaomycin A, nanaomycin A is dissolved or suspended in a suitable carrier, for example, olive oil, and is coated on the affected part directly with or without removal of the scales. […] The results obtained by once-coating of nanaomycin A and by twice-coating (the second coating is carried out a week after the first coating) are shown in Tables 2 and 3, respectively.

[15] = test system: Mycobacterium smegmatis ATCC 607; test: Minimal inhibitory concentration (agar); assay type: cell-based; conditions: Mycolicibacterium smegmatis, ATCC607, 48 h; nutrient agar, pH 7.0, 2 days, 37° C.
Sarcina lutea PCI 1001 = test: Minimal inhibitory concentration (agar); assay type: cell-based; conditions: Micrococcus luteus, PCI1001, 48 h, pH 7, nutrient agar, pH 7.0, 2 days, 37° C.; read-out: MIC
Experimental: (§7) Medium N nutrient agar (pH 7.0, 2 days, 37° C.)
as §4, §6

[16] = test system: Staphylococcus aureus FDA 209P (JC-1); test: Minimal inhibitory concentration (agar); assay type: cell-based; conditions: FDA209P, 48 h, nutrient agar, pH 7.0, 2 days, 37° C.
Experimental: as §7, §4, §6

[17] = test system: Escherichia coli NIHJ (JC-2); test: Minimal inhibitory concentration (agar); assay type: cell-based; conditions: 48 h, pH 7, nutrient agar, pH 7.0, 2 days, 37° C.
Experimental: as §7, §4, §6

[18] = test system: Bacillus subtilis PCI 219; test: Minimal inhibitory concentration (agar); assay type: cell-based; conditions: Bacillus subtilis, PCI219, 48 h, pH 7, nutrient agar, pH 7.0, 2 days, 37° C.; read-out: MIC
Experimental: as §7, §4, §6

[19] = test system: Trichophyton mentagrophytes; test: Minimal inhibitory concentration (agar); assay type: cell-based; conditions: 96 h, pH 6.4, potato agar, pH 6.4, 4 days, 27° C.
Solubility = assay type: physicochemical
[20] = test system: Acholeplasma laidlawii (A); test: Antimycoplasma activity, inhibition zone; assay type: cell-based; conditions: Hokken PPLO agar, pH 7.8, 8 days, 37° C.
Experimental: H Hokken PPLO agar (pH 7.8, 8 days, 37° C.)
as §5

In the case of ethylkalafunginate [reference compound], the MIC (Saccharomyces sake) is reported as > 100 µg/mL, the MIC (Trichophyton asteroides) is reported as > 100 µg/mL and the MIC (Aspergillus niger) is reported as > 100 µg/mL. The MIC (Trichophyton ferrugineum) was > 100 µg/mL, the MIC (Trichophyton rubrum; potato agar) was > 100 µg/mL and the MIC (Trichophyton schoenleini; potato agar) was > 100 µg/mL. The MIC (Candida albicans; potato agar) was > 100 µg/mL, the MIC [1] was > 100 µg/mL and the “Minimal Inhibitory Con.” value (Microsporum gypseum) was > 100 µg/mL. The “Minimal Inhibitory Con.” value (Aspergillus fumigatus) was > 100 µg/mL and the MIC (Trichophyton violaceum) was > 100 µg/mL.

For `COC(=O)CC1CC2=C(C(=O)c3c(O)cccc3C2=O)C(C)O1` (stereo not shown) [Nanaomycin A methyl ester, nanaomycin A methyl ester], the MIC (Microsporum gypseum 704) was 1.6 µg/mL (≈ 5.06 µM), the MIC (Trichophyton pedis 804) was 12.5 µg/mL (≈ 39.5 µM) and the MIC [2] was 12.5 µg/mL (≈ 39.5 µM). The MIC (Saccharomyces sake; Saccharomyces, 96 h, read-out: MIC) was 50 µg/mL (≈ 158 µM), the MIC (Trichophyton asteroides; Trichophyton, 96 h, read-out: MIC) was 12.5 µg/mL (≈ 39.5 µM) and the MIC (Trichophyton ferrugineum; Microsporum ferrugineum, 96 h, read-out: MIC) was 12.5 µg/mL (≈ 39.5 µM). For the same molecule, the MIC (Trichophyton purpureum) was 12.5 µg/mL (≈ 39.5 µM), the MIC [3] was > 100 µg/mL and the MIC (Trichophyton rubrum; Trichophyton rubrum, 96 h, pH 6.4, potato agar, read-out: MIC) was < 0.2 µg/mL. For the same molecule, the MIC (Trichophyton schoenleini; Trichophyton, 96 h, pH 6.4, potato agar, read-out: MIC) was < 0.2 µg/mL, the MIC (Candida albicans; Candida albicans, 96 h, pH 6.4, potato agar, read-out: MIC) was > 100 µg/mL and the “Inhibition Zone” value [4] was 28.5 mm. For the same molecule, the MIC [5] was 100 µg/mL (≈ 316 µM), the MIC (Salmonella typhimurium) was > 100 µg/mL and the MIC ([1]; Trichophyton interdigitale, 96 h, read-out: MIC) was 12.5 µg/mL (≈ 39.5 µM). The antimicrobial activity [6] was “generally lower than those of other derivatives of nanaomycin A”, the MIC (Piricularia oryzae) was 12.5 µg/mL (≈ 39.5 µM) and the MIC (Trichophyton roseum) was 0.8 µg/mL (≈ 2.53 µM). The MIC [7] was > 100 µg/mL, the MIC [8] was > 100 µg/mL and the MIC [9] was 25 µg/mL (≈ 79 µM). The MIC [10] was 25 µg/mL (≈ 79 µM), the MIC [11] was 12.5 µg/mL (≈ 39.5 µM) and the MIC [12] was 12.5 µg/mL (≈ 39.5 µM). The MIC (Bacillus cereus T) was 25 µg/mL (≈ 79 µM), the MIC [13] was > 100 µg/mL and the MIC (Proteus mirabilis) was > 100 µg/mL. For the same molecule, the MIC (Shigella sonnei E 33) was > 100 µg/mL, the “therapeutic effect on Trichophyton infectious diseases” value [14] was “inferior to those of nanaomycin A and acetylnanaomycin A” and the MIC (Trichophyton violaceum; Trichophyton violaceum, 96 h, read-out: MIC) was 12.5 µg/mL (≈ 39.5 µM). The MIC [15] was 12.5 µg/mL (≈ 39.5 µM), the MIC (Sarcina lutea PCI 1001) was 25 µg/mL (≈ 79 µM) and the MIC [16] was 25 µg/mL (≈ 79 µM). The MIC [17] was > 100 µg/mL, the MIC [18] was 25 µg/mL (≈ 79 µM) and the MIC [19] was 6.3 µg/mL (≈ 19.9 µM). The Solubility in ether (Solubility; ether) was “Soluble”, the “Solubility in methanol, ethanol, ethylacetate, chloroform and acetone” value (Solubility; methanol, ethanol, ethylacetate, chloroform, acetone) was “Soluble” and the “Solubility in n-hexane and petroleum ether” value (Solubility; n-hexane, petroleum ether) was “Insoluble”. The Solubility in water (Solubility; water) was “Insoluble” and the “Inhibition Zone” value [20] was “none”.
